IC50 data for one molecule are collected here from ChEMBL document CHEMBL3887007, “Estra-1,3,5(10),16-tetraene-3-carboxamide derivatives, processes for their preparation, pharmaceutical preparations comprising them and their use for preparing medicaments” (2016).

As a reminder, the IC50 is the midpoint of a concentration-inhibition curve.

This assay addresses T1, Aldo-keto reductase family 1 member C3 (Homo sapiens, UniProt P42330).
T1 sequence (P42330 whole entry): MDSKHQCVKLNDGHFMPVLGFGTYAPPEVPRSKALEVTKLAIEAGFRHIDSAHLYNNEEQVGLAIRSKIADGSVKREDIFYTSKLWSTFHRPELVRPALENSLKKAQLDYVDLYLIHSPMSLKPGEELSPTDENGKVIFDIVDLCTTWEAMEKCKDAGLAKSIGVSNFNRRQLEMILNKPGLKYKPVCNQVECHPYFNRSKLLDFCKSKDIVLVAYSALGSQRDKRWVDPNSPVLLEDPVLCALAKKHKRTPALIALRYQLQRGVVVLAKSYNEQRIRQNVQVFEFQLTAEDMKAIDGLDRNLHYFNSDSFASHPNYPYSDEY
Put plainly: Inhibitory Activity Assay: Essentially, the enzyme activity is measured by quantification of the Coumberol from Coumberone (Halim, M., Yee, D. J., and Sames, D., J. AM. CHEM. SOC. 130, 14123-14128 (2008) and Yee, D. J., Balsanek, V., Bauman, D. R., Penning, T. M., and Sames, D., Proc. Natl. Acad. Sci. USA 103, 13304-13309 (2006)). In this test, the increase of the highly fluorescent Coumberol by NADPH⿿(nicotinamide adenine dinucleotide phosphate)-dependent reduction of the non-fluorescent Coumberone by AKR1C3 can be determined.The enzyme used was recombinant human AKR1C3 (Aldo-keto reductase family 1 member C3) (GenBank Accession No. NM_003739). This was expressed in E. coli as GST (glutathione S transferase) fusion protein and purified by glutathione Sepharose affinity chromatography. The GST was removed by digestion with thrombin and subsequent size exclusion chromatography (Dufort, I., Rheault, P., Huang, X F., Soucy, P., and Luu-The, V., Endocrinology 140, 568-574 (1999)). […]. For orientation: SEC sorts molecules by how far they enter the pores of the column.

Structures are written as SMILES. Where “and” joins values, the source holds several entries; their conditions need not be identical. Identical values can stand only once.

For the molecule `C[C@]12CC[C@@H]3c4ccc(C(=O)NCC5(C(=O)O)CC5)cc4CC[C@H]3[C@@H]1CC=C2c1cncc(F)c1`, the IC50 was 9.2 nM and 10.2 nM.
